Experimental data as given in US4006133A, “Aminoglycoside antibiotics” (Sankyo Company Limited, priority 1973, dated 1977).
Converted amounts (≈) assume the structure as drawn. Like-named read-outs stand apart in the source and are kept apart here.

Experiments:
Format in all cases: cell-based
Proteus rettgeri 1602 = assay: Minimum inhibitory concentration
Escherichia coli 620 = assay: Minimum inhibitory concentration
Escherichia coli 605 = assay: Minimum inhibitory concentration
[1] = system: Pseudomonas aeruginosa 1100; assay: Minimum inhibitory concentration
Bacillus anthracis = assay: microbe, parasite or virus in culture; details: read-out: Minimum inhibitory concentration
[2] = system: Pseudomonas aeruginosa 1016; assay: Minimum inhibitory concentration
Proteus mirabilis 1306 = assay: Minimum inhibitory concentration
Klebsiella 806 = assay: Minimum inhibitory concentration
[3] = system: Staphylococcus epidermidis; assay: Minimum inhibitory concentration; details: read-out: Minimum inhibitory concentration
Proteus morganii 1512 = assay: Minimum inhibitory concentration
[4] = system: butirosin-resistant as well as butirosin-sensitive strains; assay: Antibacterial activity, butirosin-resistant and butirosin-sensitive strains
Salmonella typhi-murium = assay: Minimum inhibitory concentration; details: read-out: Minimum inhibitory concentration
Shigella sonnei = assay: Minimum inhibitory concentration; details: Hurt's infusion agar
[5] = system: Staphylococcus aureus 109; assay: Minimum inhibitory concentration
Proteus mirabilis 1312 = assay: Minimum inhibitory concentration
Proteus vulgaris 1416 = assay: Minimum inhibitory concentration
Shigella flexneri 2a = assay: Minimum inhibitory concentration; details: Hurt's infusion agar
[6] = system: Staphylococcus aureus 163; assay: Minimum inhibitory concentration
[7] = system: Pseudomonas schuylkilliensis; assay: Minimum inhibitory concentration; details: read-out: Minimum inhibitory concentration
[8] = system: Staphylococcus aureus 126; assay: Minimum inhibitory concentration
[9] = system: Staphylococcus aureus 209 P; assay: Minimum inhibitory concentration; details: read-out: Minimum inhibitory concentration
[10] = system: Pseudomonas aeruginosa Scr.; assay: Minimum inhibitory concentration; details: read-out: Minimum inhibitory concentration
[11] = system: Pseudomonas aeruginosa 1080; assay: Minimum inhibitory concentration
Proteus vulgaris 1404 = assay: Minimum inhibitory concentration
Escherichia coli 665 = assay: Minimum inhibitory concentration
Proteus rettgeri 1601 = assay: Minimum inhibitory concentration
Salmonella enteritidis = assay: Minimum inhibitory concentration; details: Salmonella enterica, read-out: Minimum inhibitory concentration
Escherichia coli 704 = assay: Minimum inhibitory concentration
Proteus morganii 1501 = assay: Minimum inhibitory concentration
[12] = system: Staphylococcus aureus 167; assay: Minimum inhibitory concentration
[13] = system: Pseudomonas aeruginosa 1055; assay: Minimum inhibitory concentration
Escherichia coli NIHJ = assay: Minimum inhibitory concentration; details: read-out: Minimum inhibitory concentration
[14] = system: Bacillus subtilis PCI-219; assay: Minimum inhibitory concentration
Klebsiella 813 = assay: Minimum inhibitory concentration

`NCC[C@H](O)C(=O)N[C@@H]1C[C@H](N)[C@@H](O[C@H]2O[C@H](CN)CC[C@H]2N)[C@H](O[C@@H]2O[C@H](CN)[C@H](O)[C@H]2O)[C@H]1O` [ATBA, 5"-amino-3',4',5"-trideoxybutirosin A] was tested, and the MIC (Proteus rettgeri 1602; Providencia rettgeri, Proteus rettgeri 1602, Hurt's infusion agar, read-out: Minimum inhibitory concentration) was 12.5 µg/mL (≈ 23.9 µM), the MIC (Escherichia coli 620; Escherichia coli 620, Hurt's infusion agar, read-out: Minimum inhibitory concentration) was 12.5 µg/mL (≈ 23.9 µM) and the MIC (Escherichia coli 605; Escherichia coli 605, Hurt's infusion agar, read-out: Minimum inhibitory concentration) was 25 µg/mL (≈ 47.8 µM). For the same compound, the MIC ([1]; Pseudomonas aeruginosa 1100, Hurt's infusion agar, read-out: Minimum inhibitory concentration) was 25 µg/mL (≈ 47.8 µM), the MIC (Bacillus anthracis) was 0.1 µg/mL (≈ 0.191 µM) and the MIC ([2]; Pseudomonas aeruginosa 1016, Hurt's infusion agar, read-out: Minimum inhibitory concentration) was 3.1 µg/mL (≈ 5.93 µM). For the same compound, the MIC (Proteus mirabilis 1306; Proteus mirabilis 1306, Hurt's infusion agar, read-out: Minimum inhibitory concentration) was 25 µg/mL (≈ 47.8 µM), the MIC (Klebsiella 806; Klebsiella 806, Hurt's infusion agar, read-out: Minimum inhibitory concentration) was 6.2 µg/mL (≈ 11.9 µM) and the MIC ([3]; Hurt's infusion agar) was 1.5 µg/mL (≈ 2.87 µM). The MIC (Proteus morganii 1512; Morganella morganii, Proteus morganii 1512, Hurt's infusion agar, read-out: Minimum inhibitory concentration) was 3.1 µg/mL (≈ 5.93 µM), the “antibacterial activity (in words)” value [4] was “extremely active” and the MIC (Salmonella typhi-murium) was 6.2 µg/mL (≈ 11.9 µM). For the same compound, the MIC (Shigella sonnei) was 3.1 µg/mL (≈ 5.93 µM), the MIC ([5]; Staphylococcus aureus 109, Hurt's infusion agar, read-out: Minimum inhibitory concentration) was 3.1 µg/mL (≈ 5.93 µM) and the MIC (Proteus mirabilis 1312; Proteus mirabilis 1312, Hurt's infusion agar, read-out: Minimum inhibitory concentration) was 50 µg/mL (≈ 95.7 µM). The MIC (Proteus vulgaris 1416; Proteus vulgaris 1416, Hurt's infusion agar, read-out: Minimum inhibitory concentration) was 50 µg/mL (≈ 95.7 µM), the MIC (Shigella flexneri 2a) was 3.1 µg/mL (≈ 5.93 µM) and the MIC ([6]; Staphylococcus aureus 163, Hurt's infusion agar, read-out: Minimum inhibitory concentration) was 25 µg/mL (≈ 47.8 µM). The MIC ([7]; Pseudomonas schuylkilliensis, Hurt's infusion agar) was 6.2 µg/mL (≈ 11.9 µM), the MIC ([8]; Staphylococcus aureus 126, Hurt's infusion agar, read-out: Minimum inhibitory concentration) was 1.5 µg/mL (≈ 2.87 µM) and the MIC ([9]; Staphylococcus aureus 209 P, Hurt's infusion agar) was 0.2 µg/mL (≈ 0.383 µM). The MIC ([10]; Pseudomonas aeruginosa Scr., Hurt's infusion agar) was 1.5 µg/mL (≈ 2.87 µM), the MIC ([11]; Pseudomonas aeruginosa 1080, Hurt's infusion agar, read-out: Minimum inhibitory concentration) was 100 µg/mL (≈ 191 µM) and the MIC (Proteus vulgaris 1404; Proteus vulgaris 1404, Hurt's infusion agar, read-out: Minimum inhibitory concentration) was 6.2 µg/mL (≈ 11.9 µM). The MIC (Escherichia coli 665; Escherichia coli 665, Hurt's infusion agar, read-out: Minimum inhibitory concentration) was 12.5 µg/mL (≈ 23.9 µM), the MIC (Proteus rettgeri 1601; Providencia rettgeri, Proteus rettgeri 1601, Hurt's infusion agar, read-out: Minimum inhibitory concentration) was 1.5 µg/mL (≈ 2.87 µM) and the MIC (Salmonella enteritidis; Salmonella enteritidis, Hurt's infusion agar) was 6.2 µg/mL (≈ 11.9 µM). For the same compound, the MIC (Escherichia coli 704; Escherichia coli 704, Hurt's infusion agar, read-out: Minimum inhibitory concentration) was 6.2 µg/mL (≈ 11.9 µM), the MIC (Proteus morganii 1501; Morganella morganii, Proteus morganii 1501, Hurt's infusion agar, read-out: Minimum inhibitory concentration) was 1.5 µg/mL (≈ 2.87 µM) and the MIC ([12]; Staphylococcus aureus 167, Hurt's infusion agar, read-out: Minimum inhibitory concentration) was 0.1 µg/mL (≈ 0.191 µM). The MIC ([13]; Pseudomonas aeruginosa 1055, Hurt's infusion agar, read-out: Minimum inhibitory concentration) was 6.2 µg/mL (≈ 11.9 µM), the MIC (Escherichia coli NIHJ; Escherichia coli NIHJ, Hurt's infusion agar) was 3.1 µg/mL (≈ 5.93 µM) and the MIC ([14]; PCI219, Bacillus subtilis PCI-219, Hurt's infusion agar, read-out: Minimum inhibitory concentration) was 0.1 µg/mL (≈ 0.191 µM). For the same compound, the MIC (Klebsiella 813; Klebsiella 813, Hurt's infusion agar, read-out: Minimum inhibitory concentration) was 25 µg/mL (≈ 47.8 µM).
`NCC[C@H](O)C(=O)N[C@@H]1C[C@H](N)[C@@H](O[C@H]2O[C@H](CN)[C@@H](O)[C@H](O)[C@H]2N)[C@H](O[C@@H]2O[C@H](CO)[C@H](O)[C@H]2O)[C@H]1O` [BA, butirosin A, reference compound] was tested, and the MIC (Proteus rettgeri 1602; Providencia rettgeri, 1602, read-out: Minimum inhibitory concentration) was > 200 µg/mL, the MIC (Escherichia coli 620; Escherichia coli, 620, read-out: Minimum inhibitory concentration) was > 200 µg/mL and the MIC (Escherichia coli 605; Escherichia coli, 605, read-out: Minimum inhibitory concentration) was > 200 µg/mL. For the same compound, the MIC ([1]; Pseudomonas aeruginosa, 1100, read-out: Minimum inhibitory concentration) was > 200 µg/mL, the MIC (Bacillus anthracis) was 0.8 µg/mL (≈ 1.44 µM) and the MIC ([2]; Pseudomonas aeruginosa, 1016, read-out: Minimum inhibitory concentration) was > 200 µg/mL. For the same compound, the MIC (Proteus mirabilis 1306; Proteus mirabilis, 1306, read-out: Minimum inhibitory concentration) was 50 µg/mL (≈ 90 µM), the MIC (Klebsiella 806; Klebsiella, 806, read-out: Minimum inhibitory concentration) was 3.1 µg/mL (≈ 5.58 µM) and the MIC [3] was 0.4 µg/mL (≈ 0.72 µM). For the same compound, the MIC (Proteus morganii 1512; Morganella morganii, 1512, read-out: Minimum inhibitory concentration) was 25 µg/mL (≈ 45 µM), the MIC (Salmonella typhi-murium; Salmonella typhi-murium, Hurt's infusion agar) was 12.5 µg/mL (≈ 22.5 µM) and the MIC (Shigella sonnei) was 6.2 µg/mL (≈ 11.2 µM). The MIC ([5]; Staphylococcus aureus, 109, read-out: Minimum inhibitory concentration) was > 200 µg/mL, the MIC (Proteus mirabilis 1312; Proteus mirabilis, 1312, read-out: Minimum inhibitory concentration) was 100 µg/mL (≈ 180 µM) and the MIC (Proteus vulgaris 1416; Proteus vulgaris, 1416, read-out: Minimum inhibitory concentration) was 100 µg/mL (≈ 180 µM). For the same compound, the MIC (Shigella flexneri 2a) was 6.2 µg/mL (≈ 11.2 µM), the MIC ([6]; Staphylococcus aureus, 163, read-out: Minimum inhibitory concentration) was > 200 µg/mL and the MIC ([7]; Pseudomonas) was 25 µg/mL (≈ 45 µM). For the same compound, the MIC ([8]; Staphylococcus aureus, 126, read-out: Minimum inhibitory concentration) was 6.5 µg/mL (≈ 11.7 µM), the MIC ([9]; Staphylococcus aureus, 209P) was 1.5 µg/mL (≈ 2.7 µM) and the MIC ([10]; Pseudomonas aeruginosa) was 12.5 µg/mL (≈ 22.5 µM). For the same compound, the MIC ([11]; Pseudomonas aeruginosa, 1080, read-out: Minimum inhibitory concentration) was > 200 µg/mL, the MIC (Proteus vulgaris 1404; Proteus vulgaris, 1404, read-out: Minimum inhibitory concentration) was 25 µg/mL (≈ 45 µM) and the MIC (Escherichia coli 665; Escherichia coli, 665, read-out: Minimum inhibitory concentration) was > 200 µg/mL. It also gave an MIC (Proteus rettgeri 1601; Providencia rettgeri, 1601, read-out: Minimum inhibitory concentration) of 6.2 µg/mL (≈ 11.2 µM), an MIC (Salmonella enteritidis; ENTERITIDIS) of 12.5 µg/mL (≈ 22.5 µM) and an MIC (Escherichia coli 704; Escherichia coli, 704, read-out: Minimum inhibitory concentration) of 12.5 µg/mL (≈ 22.5 µM). The MIC (Proteus morganii 1501; Morganella morganii, 1501, read-out: Minimum inhibitory concentration) was 3.1 µg/mL (≈ 5.58 µM), the MIC ([12]; Staphylococcus aureus, 167, read-out: Minimum inhibitory concentration) was 200 µg/mL (≈ 360 µM) and the MIC ([13]; Pseudomonas aeruginosa, 1055, read-out: Minimum inhibitory concentration) was > 200 µg/mL. The MIC (Escherichia coli NIHJ; Escherichia coli) was 3.1 µg/mL (≈ 5.58 µM), the MIC ([14]; Bacillus subtilis, PCI219, read-out: Minimum inhibitory concentration) was 0.4 µg/mL (≈ 0.72 µM) and the MIC (Klebsiella 813; Klebsiella, 813, read-out: Minimum inhibitory concentration) was 50 µg/mL (≈ 90 µM).
